Assays:
Assay type in all cases: biochemical
[1] = molecular target: Acinetobacter baumannii AYE ADH (AbADH), SEQ ID NO: 36; test: isobutyraldehyde reduction kinetics (A340, initial rates)
Source text: (§1) This example describes preparation of ADH-gene constructs for over-expression/purification and measurement of enzyme activities using a time-course assay. Horse-liver ADH (HLADH; A-6128) was purchased from Sigma. Achromobacter xylosoxidans SadB (SadB), Saccharomyces cerevisiae ADH6 (ScADH6) and ADH7 (ScADH7), Entamoeba histolytica ADH1 (EhADH1), Bos Taurus Aldehyde Reductase (BtARD), Beijerinckia indica subsp. Indica ATCC 9039 (BiADH), Clostridium beijerinckii ADH (CbADH), Rana perezi ADH8 (RpADH8), Rattus norvegicus ADH1 (RnADH1), Thermus sp. ATN1 ADH (TADH), Phenylobacterium zucineum HLK1 ADH (PzADH), Methylocella silvestris BL2 ADH (MsADH), Acinetobacter baumannii AYE ADH (AbADH), Geobacillus sp. WCH70 ADH (GbADH), Vanderwaltozyma polyspora DSM 70294 ADH (VpADH), Mucor circinelloides ADH (McADH), and Rhodococcus erythropolis PR4ADH (ReADH) were the candidates for which subclones were prepared for protein expression and purification.
(§2) As a routine practice, the crude extracts and purified proteins were assayed for butanol oxidation activity, in order to ensure that the recombinant proteins were active throughout the purification process. […] Alcohol oxidation activities were carried out in 50 mM sodium phosphate buffer at pH 8.8 and aldehyde reduction reactions were assayed in 190 mM potassium phosphate buffer at pH 7.0. Depending on the nature of reaction being carried out, the enzyme and cofactor stocks were diluted in the reaction buffers at the respective pHs. Either buffer or cell extract prepared from the proprietary E. coli strain (with no ADH plasmid) was used as the negative control for assays with purified protein and cell-free extracts, respectively.
(§3) Kinetic constants of the ADH enzymes were calculated and compared to identify those candidate ADH enzymes with the most desirable properties for the conversion of isobutyraldehyde to isobutanol in the last step of the engineered pathway for isobutanol production. The assays for determining the kinetic constants were carried out using initial rates from the assays described above. […] The concentration of a given enzyme was such that it was conducive for the measurement of initial velocities over a 1-min time course. For each enzyme, Michaelis-Menten plots were generated with a broad range of substrate concentrations. Rough estimates of KM were obtained, based on which the assays were redesigned so as to use substrate concentrations in the range 0.5 to 10 times the KM value, to be able to obtain the appropriate kinetic constants. […] When calculating the KI for isobutanol, the same reactions were carried out in the presence of varying concentrations of isobutanol (generally 0-535 mM) in the reaction (see FIG. 7, for example). Reactions with isobutanol substrate were performed at 30° C. in 50 mM Sodium phosphate buffer, pH 8.8, containing 7.5 mM NAD. The Enzyme kinetics module (Version 1.3) of SigmaPlot 11 (Systat Software, Inc.) was used to fit data to Michaelis-Menten equations and calculate the kinetic constants. The kcat/KM is derived from the individual numbers of kcat and KM and not an experimentally determined value. The ratios of the KM, KI, and kcat/KM for each candidate enzyme as compared to the same parameter for SadB are given in Table 9.
(§4) Seven additional candidate ADH enzymes were synthesized, expressed, and assayed according to methods such as described in Example 2. Kinetic constants obtained for the indicated ADH enzymes (Phenylobacterium zucineum HLK1 ADH (PzADH), Methylocella silvestris BL2 ADH (MsADH), Acinetobacter baumannii AYE ADH (AbADH), Geobacillus sp. WCH70 ADH (GbADH), and Mucor circinelloides ADH (McADH)) are given in Table 8. A comparison of KM, KI, and kcat/KM for each candidate enzyme as compared to the same parameter for SadB are given in Table 9 as a percentage of the values determined (Table 7) for SadB. […]

[2] = molecular target: T1, Geobacillus sp. WCH70 ADH (GbADH), SEQ ID NO: 37 (Parageobacillus toebii, UniProt A0A6G9J337); test: as above
T1 construct: 346 aa, begins […]) in pBADHisA, N-terminal His tag, expressed in E. coli, purified
Source text: as §1, §2, §3, §4

[3] = molecular target: T2, Methylocella silvestris BL2 ADH (MsADH), SEQ ID NO: 35 (Methylocella silvestris, UniProt B8ELZ1); test: as above
T2 sequence (B8ELZ1 1-345): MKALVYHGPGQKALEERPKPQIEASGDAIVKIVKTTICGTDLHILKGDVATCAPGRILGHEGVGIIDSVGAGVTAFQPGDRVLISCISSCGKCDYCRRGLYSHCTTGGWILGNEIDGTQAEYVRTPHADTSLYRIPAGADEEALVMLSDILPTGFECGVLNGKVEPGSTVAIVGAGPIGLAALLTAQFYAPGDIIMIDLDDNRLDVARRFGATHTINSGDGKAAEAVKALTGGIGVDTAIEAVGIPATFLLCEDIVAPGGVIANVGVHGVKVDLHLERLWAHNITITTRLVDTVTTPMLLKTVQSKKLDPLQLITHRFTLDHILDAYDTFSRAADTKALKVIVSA
Source text: as §1, §2, §3, §4

[4] = molecular target: Mucor circinelloides ADH (McADH), SEQ ID NO: 39 (Mucor circinelloides, UniProt Q66UT6); test: as above
Source text: as §1, §2, §3, §4

[5] = molecular target: T3, Phenylobacterium zucineum HLK1 ADH (PzADH), SEQ ID NO: 34 (Phenylobacterium zucineum, UniProt B4RIA4); test: as above
T3 sequence (B4RIA4 1-345): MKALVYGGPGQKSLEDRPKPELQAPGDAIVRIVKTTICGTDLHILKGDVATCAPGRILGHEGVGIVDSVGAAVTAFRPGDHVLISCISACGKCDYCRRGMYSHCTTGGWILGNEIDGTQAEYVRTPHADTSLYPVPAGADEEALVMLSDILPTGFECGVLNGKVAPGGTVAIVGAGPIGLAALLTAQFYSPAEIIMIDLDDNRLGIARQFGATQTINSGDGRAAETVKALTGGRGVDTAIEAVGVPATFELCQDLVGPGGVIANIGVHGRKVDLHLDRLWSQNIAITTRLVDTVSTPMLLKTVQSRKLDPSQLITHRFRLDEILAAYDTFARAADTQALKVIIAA
Source text: as §1, §2, §3, §4

[6] = molecular target: T4, horse liver ADH (HLADH), SEQ ID NO: 21 (Equus caballus, UniProt P00327); test: isobutanol oxidation kinetics; conditions: 30° C., pH 8.8, 7.5 mM NAD
T4 construct: purchased Sigma A-6128
Experimental: as §2, §3
For those enzymes marked with an asterisk in Table 7, at least 3 assays were performed with separate preparations of the enzyme. All other numbers are values from either one assay or are averages from 2 assays performed with the same enzyme sample.

Chain of Mucor circinelloides ADH (McADH), SEQ ID NO: 39 (Q66UT6 entry or part of it): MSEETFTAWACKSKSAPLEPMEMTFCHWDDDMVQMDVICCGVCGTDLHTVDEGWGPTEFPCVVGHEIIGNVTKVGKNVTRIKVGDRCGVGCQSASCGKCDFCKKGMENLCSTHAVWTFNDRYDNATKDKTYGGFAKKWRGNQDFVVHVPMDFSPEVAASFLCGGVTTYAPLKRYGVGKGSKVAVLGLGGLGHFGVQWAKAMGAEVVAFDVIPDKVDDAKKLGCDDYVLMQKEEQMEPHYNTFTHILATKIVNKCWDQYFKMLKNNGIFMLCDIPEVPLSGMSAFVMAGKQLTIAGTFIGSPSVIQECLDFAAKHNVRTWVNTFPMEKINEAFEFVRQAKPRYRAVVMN
T1 sequence (A0A6G9J337 entry or part of it): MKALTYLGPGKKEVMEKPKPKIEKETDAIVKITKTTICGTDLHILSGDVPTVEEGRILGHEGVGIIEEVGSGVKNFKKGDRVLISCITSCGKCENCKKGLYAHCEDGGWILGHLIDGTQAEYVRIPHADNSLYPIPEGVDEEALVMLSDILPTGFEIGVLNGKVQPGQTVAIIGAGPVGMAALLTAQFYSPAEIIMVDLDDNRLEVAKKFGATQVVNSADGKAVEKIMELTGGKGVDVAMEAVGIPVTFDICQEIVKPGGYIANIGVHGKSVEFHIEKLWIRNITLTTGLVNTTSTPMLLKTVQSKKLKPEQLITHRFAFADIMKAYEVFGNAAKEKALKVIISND
T4 sequence (P00327 whole entry): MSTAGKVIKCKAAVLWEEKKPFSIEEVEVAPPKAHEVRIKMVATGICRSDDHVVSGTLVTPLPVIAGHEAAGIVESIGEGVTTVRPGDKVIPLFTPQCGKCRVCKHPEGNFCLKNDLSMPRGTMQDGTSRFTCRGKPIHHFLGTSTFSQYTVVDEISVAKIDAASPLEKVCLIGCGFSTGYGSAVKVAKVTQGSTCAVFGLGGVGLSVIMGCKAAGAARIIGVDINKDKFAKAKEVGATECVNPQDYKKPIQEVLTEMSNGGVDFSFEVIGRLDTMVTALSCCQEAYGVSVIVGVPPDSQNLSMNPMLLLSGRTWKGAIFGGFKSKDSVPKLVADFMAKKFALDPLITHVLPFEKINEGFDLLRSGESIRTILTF

Compound: CC(C)CO [isobutanol, 2-methylpropan-1-ol]
- KI as a percentage of the same parameter for SadB ([1]; relative to SadB): 169%
- Ki ([2]; isobutyraldehyde reduction, varying isobutanol, NADPH specific): 13 mM
- KI as a percentage of the same parameter for SadB ([2]; relative to SadB): 7%
- Ki ([3]; read-out: KI (Isobutanol)): 19 mM
- KI as a percentage of the same parameter for SadB ([3]; relative to SadB): 11%
- Ki ([4]; read-out: KI (Isobutanol)): 79 mM
- KI as a percentage of the same parameter for SadB ([4]; relative to SadB): 44%
- Ki ([5]; read-out: KI (Isobutanol)): 13 mM
- KI as a percentage of the same parameter for SadB ([5]; relative to SadB): 7%
- kcat (isobutanol oxidation) [6]: [Isobutanol oxidation: kcat = 5 sec^−1;

Compound: CC(C)C=O [isobutyraldehyde]
- Km ([1]; 30° C., pH 7.0, NADH specific, read-out: KM (Isobutanal)): 10 mM
- kcat ([1]; isobutyraldehyde reduction, 30° C., pH 7.0, NADH specific): 99 s⁻¹
- KM as a percentage of the same parameter for SadB ([1]; relative to SadB): 1020%
- kcat as a percentage of the same parameter for SadB ([1]; relative to SadB): 91%
- kcat/KM as a percentage of the same parameter for SadB ([1]; relative to SadB): 9%
- KM as a percentage of the same parameter for SadB ([2]; relative to SadB): 44%
- kcat as a percentage of the same parameter for SadB ([2]; relative to SadB): 29%
- kcat/KM as a percentage of the same parameter for SadB ([2]; relative to SadB): 69%
- KM as a percentage of the same parameter for SadB ([3]; relative to SadB): 6%
- kcat as a percentage of the same parameter for SadB ([3]; relative to SadB): 30%
- kcat/KM as a percentage of the same parameter for SadB ([3]; relative to SadB): 532%
- KM as a percentage of the same parameter for SadB ([4]; relative to SadB): 3000%
- kcat as a percentage of the same parameter for SadB ([4]; relative to SadB): 138%
- kcat/KM as a percentage of the same parameter for SadB ([4]; relative to SadB): 5%
- KM as a percentage of the same parameter for SadB ([5]; relative to SadB): 10%
- kcat as a percentage of the same parameter for SadB ([5]; relative to SadB): 28%
- kcat/KM as a percentage of the same parameter for SadB ([5]; relative to SadB): 243%

Reference: patent US8765433B2, “Alcohol dehydrogenases (ADH) useful for fermentive production of lower alkyl alcohols” (priority 2009, dated 2014)
